In US20260232767A1, “INTERLEUKIN-23 RECEPTOR ANTAGONIST PEPTIDES FOR USE IN THE TREATMENT OF PSORIASIS” (Janssen Pharmaceutica NV, priority 2023, published 2026):

Tested on: subjects with moderate-to-severe plaque psoriasis
Experiment: PASI response, Example 2 long-term extension to Week 52
Type: in vivo, human
Conditions: for Change from Baseline in PASI Total Score, LSMean: MMRM model
Description: Described below is a multicenter, long-term extension (LTE), double-blind, dose-ranging, parallel group interventional study in participants from Example 1 to evaluate the long-term efficacy and safety of the hydrochloride salt of the compound of Formula (I) for the treatment of moderate-to-severe plaque psoriasis. Patients from Example 1 continued to receive the same dose of the compound of Formula (I) for an additional 36-week treatment period with a 4-week safety follow up period after the last administration of the compound of Formula (I). Patients randomized to placebo in Example 1 received the compound of Formula (I) at a dose of 100 mg QD starting at Week 16 of Example 1 (FIG. 21).
The primary efficacy endpoint is the proportion of participants achieving a PASI 75 response at Week 52, defined as at least a […] reduction from baseline PASI of Example 1. For primary analysis, composite strategy (non-responder imputation) was applied to address intercurrent event #1 (Discontinuation of study intervention due to lack of efficacy or due to an AE of worsening of psoriasis) and […] (initiation of a protocol-prohibited medication or therapy that could improve psoriasis); treatment policy strategy (observed data) was applied to intercurrent event #3 (Discontinuation of study intervention due to other reasons). Participants with missing data after application of ICEs are considered as non-responders.
Since there was no control arm (after week 16), in this primary analysis, only the proportion of participants who achieved a PASI75 response and its […] confidence interval at Week 52 were summarized for each intervention group.

[1] = 50 mg QD, Week 52, non-responder imputation

In the case of `CC(=O)NCCCC[C@@H]1NC(=O)[C@H](Cc2c[nH]c3c(C)cccc23)NC(=O)[C@H]([C@@H](C)O)NC(=O)[C@H](CC(N)=O)NC(=O)[C@@H](NC(C)=O)C(C)(C)SSC(C)(C)[C@@H](C(=O)N[C@@H](Cc2ccc(OCCN)cc2)C(=O)N[C@@H](Cc2ccc3ccccc3c2)C(=O)NC2(C(=O)N[C@@H](CCC(=O)O)C(=O)N[C@@H](CC(N)=O)C(=O)N[C@@H](Cc3cccnc3)C(=O)N(C)CC(N)=O)CCOCC2)NC1=O` [IL-23 receptor antagonist peptide, Ac-[Pen]*-N-T-[W(7-Me)]-[Lys(Ac)]-[Pen]*-Phe[4-(2-aminoethoxy)]-[2-Nal]-[THP]-E-N-[3-Pal]-Sarc-NH2 (*[Pen]-[Pen]* formdisulfidebond)], the “Change from Baseline in PASI Total Score, Median” value (“Change from Baseline … Median” for short) (50 mg QD, Week 16) was −14.90, the “Change from Baseline in PASI Total Score, LSMean” value (“Change from Baseline … LSMean” below) (50 mg QD, Week 16) was −14.4 and the “Change from Baseline in PASI Total Score, Mean” value (50 mg QD, Week 20) was −14.92. For the same compound, the “Change from Baseline … Median” value (50 mg QD, Week 20) was −15.10, the “Change from Baseline … LSMean” value (50 mg QD, Week 20) was −14.7 and the “Change from Baseline in PASI Total Score, Mean” value (50 mg QD, Week 24) was −15.10. The “Change from Baseline … Median” value (50 mg QD, Week 24) was −15.70, the “Change from Baseline … LSMean” value (50 mg QD, Week 24) was −14.9 and the “Change from Baseline in PASI Total Score, Mean” value (50 mg QD, Week 28) was −14.75. For the same compound, the “Change from Baseline … Median” value (50 mg QD, Week 28) was −15.50, the “Change from Baseline … LSMean” value (50 mg QD, Week 28) was −14.6 and the “Change from Baseline in PASI Total Score, Mean” value (50 mg QD, Week 32) was −14.88. For the same compound, the “Change from Baseline … Median” value (50 mg QD, Week 32) was −15.80, the “Change from Baseline … LSMean” value (50 mg QD, Week 32) was −14.6 and the “Change from Baseline in PASI Total Score, Mean” value (50 mg QD, Week 40) was −14.33. The “Change from Baseline … Median” value (50 mg QD, Week 40) was −15.45, the “Change from Baseline … LSMean” value (50 mg QD, Week 40) was −14.2 and the “Change from Baseline in PASI Total Score, Mean” value (50 mg QD, Week 52) was −14.45. The “Change from Baseline … Median” value (50 mg QD, Week 52) was −15.80, the “Subjects achieving PASI 75” value (50 mg QD, Week 52) was 30 (69.8%) and the “Change from Baseline … LSMean” value (50 mg QD, Week 52) was −14.3. The “Subjects achieving 100% Improvement at Week 52 (PASI)” value [1] was “(20.9%)”, the “Subjects achieving ≥75% Improvement at Week 52 (PASI 75 Response)” value [1] was 30 (69.8%) and the “Subjects achieving ≥90% Improvement at Week 52 (PASI)” value [1] was “(41.9%)”. The “Change from Baseline in PASI Total Score, Mean” value (100 mg BID, Week 1) was −3.25, the “Change from Baseline … Median” value (100 mg BID, Week 1) was −1.20 and the “Change from Baseline … LSMean” value (100 mg BID, Week 1) was −2.9. For the same compound, the “Change from Baseline in PASI Total Score, Mean” value (100 mg BID, Week 2) was 6.07, the “Change from Baseline … Median” value (100 mg BID, Week 2) was −4.85 and the “Change from Baseline … LSMean” value (100 mg BID, Week 2) was −5.7. The “Change from Baseline in PASI Total Score, Mean” value (100 mg BID, Week 4) was −10.71, the “Change from Baseline … Median” value (100 mg BID, Week 4) was −9.70 and the “Change from Baseline … LSMean” value (100 mg BID, Week 4) was −10.0. The “Change from Baseline in PASI Total Score, Mean” value (100 mg BID, Week 8) was −14.66, the “Change from Baseline … Median” value (100 mg BID, Week 8) was −13.30 and the “Change from Baseline … LSMean” value (100 mg BID, Week 8) was −13.8. The “Change from Baseline in PASI Total Score, Mean” value (100 mg BID, Week 12) was −16.77, the “Change from Baseline … Median” value (100 mg BID, Week 12) was −17.05 and the “Change from Baseline … LSMean” value (100 mg BID, Week 12) was −15.9. For the same compound, the “Change from Baseline in PASI Total Score, Mean” value (100 mg BID, Week 16) was −17.44, the “Change from Baseline … Median” value (100 mg BID, Week 16) was −17.40 and the “Change from Baseline … LSMean” value (100 mg BID, Week 16) was −16.5. The “Change from Baseline in PASI Total Score, Mean” value (100 mg BID, Week 20) was −17.83, the “Change from Baseline … Median” value (100 mg BID, Week 20) was −17.40 and the “Change from Baseline … LSMean” value (100 mg BID, Week 20) was −17.0. The “Change from Baseline in PASI Total Score, Mean” value (100 mg BID, Week 24) was −17.99, the “Change from Baseline … Median” value (100 mg BID, Week 24) was −17.80 and the “Change from Baseline … LSMean” value (100 mg BID, Week 24) was −17.1. The “Change from Baseline in PASI Total Score, Mean” value (100 mg BID, Week 28) was −17.96, the “Change from Baseline … Median” value (100 mg BID, Week 28) was −17.75 and the “Change from Baseline … LSMean” value (100 mg BID, Week 28) was −17.2. The “Change from Baseline in PASI Total Score, Mean” value (100 mg BID, Week 32) was −18.37, the “Change from Baseline … Median” value (100 mg BID, Week 32) was −18.20 and the “Change from Baseline … LSMean” value (100 mg BID, Week 32) was −17.3. For the same compound, the “Change from Baseline in PASI Total Score, Mean” value (100 mg BID, Week 40) was −18.30, the “Change from Baseline … Median” value (100 mg BID, Week 40) was −18.30 and the “Change from Baseline … LSMean” value (100 mg BID, Week 40) was −17.4. For the same compound, the “Change from Baseline in PASI Total Score, Mean” value (100 mg BID, Week 52) was −18.46, the “Change from Baseline … Median” value (100 mg BID, Week 52) was −18.60 and the “Subjects achieving PASI 75” value (100 mg BID, Week 52) was 32 (76.2%). The “Change from Baseline … LSMean” value (100 mg BID, Week 52) was −17.4, the “Subjects achieving ≥75% Improvement at Week 52 (PASI 75 Response)” value (100 mg BID, Week 52, non-responder imputation) was 32 (76.2%) and the “Change from Baseline in PASI Total Score, Mean” value (100 mg QD, Week 1) was −2.60. The “Change from Baseline … Median” value (100 mg QD, Week 1) was −1.10, the “Change from Baseline … LSMean” value (100 mg QD, Week 1) was −2.8 and the “Change from Baseline in PASI Total Score, Mean” value (100 mg QD, Week 2) was −5.13. The “Change from Baseline … Median” value (100 mg QD, Week 2) was −3.25, the “Change from Baseline … LSMean” value (100 mg QD, Week 2) was −5.3 and the “Change from Baseline in PASI Total Score, Mean” value (100 mg QD, Week 4) was −8.39. For the same compound, the “Change from Baseline … Median” value (100 mg QD, Week 4) was −7.30, the “Change from Baseline … LSMean” value (100 mg QD, Week 4) was −8.7 and the “Change from Baseline in PASI Total Score, Mean” value (100 mg QD, Week 8) was −12.04. For the same compound, the “Change from Baseline … Median” value (100 mg QD, Week 8) was −11.30, the “Change from Baseline … LSMean” value (100 mg QD, Week 8) was −12.5 and the “Change from Baseline in PASI Total Score, Mean” value (100 mg QD, Week 12) was −13.70. The “Change from Baseline … Median” value (100 mg QD, Week 12) was −13.60, the “Change from Baseline … LSMean” value (100 mg QD, Week 12) was −14.0 and the “Change from Baseline in PASI Total Score, Mean” value (100 mg QD, Week 16) was −13.99. The “Change from Baseline … Median” value (100 mg QD, Week 16) was −14.75, the “Change from Baseline … LSMean” value (100 mg QD, Week 16) was −14.4 and the “Change from Baseline in PASI Total Score, Mean” value (100 mg QD, Week 20) was −14.57. For the same compound, the “Change from Baseline … Median” value (100 mg QD, Week 20) was −14.10, the “Change from Baseline … LSMean” value (100 mg QD, Week 20) was −15.1 and the “Change from Baseline in PASI Total Score, Mean” value (100 mg QD, Week 24) was −15.27. The “Change from Baseline … Median” value (100 mg QD, Week 24) was −14.90, the “Change from Baseline … LSMean” value (100 mg QD, Week 24) was −15.6 and the “Change from Baseline in PASI Total Score, Mean” value (100 mg QD, Week 28) was −16.11. For the same compound, the “Change from Baseline … Median” value (100 mg QD, Week 28) was −15.00, the “Change from Baseline … LSMean” value (100 mg QD, Week 28) was −15.8 and the “Change from Baseline in PASI Total Score, Mean” value (100 mg QD, Week 32) was −16.21. The “Change from Baseline … Median” value (100 mg QD, Week 32) was −15.10, the “Change from Baseline … LSMean” value (100 mg QD, Week 32) was −16.2 and the “Change from Baseline in PASI Total Score, Mean” value (100 mg QD, Week 40) was −15.95. For the same compound, the “Change from Baseline … Median” value (100 mg QD, Week 40) was −15.00, the “Change from Baseline … LSMean” value (100 mg QD, Week 40) was −15.7 and the “Change from Baseline in PASI Total Score, Mean” value (100 mg QD, Week 52) was −15.81. The “Change from Baseline … Median” value (100 mg QD, Week 52) was −15.00.
